How the values were obtained:
Type in all cases: in vivo
[1] = tested on: giant foxtail (Setaria faberi); assay: Test G Post-Emergence Protocol; settings: Setaria faberi, post-emergence, 312 h; for pest or weed control at 15.625 g/ha: 15.625 g ai/ha, evaluated after 13 days (100=total damage to plant; 0=no damage to plant), read-out: Foxtail, Giant damage rating; for pest or weed control at 62.5 g/ha: 62.5 g ai/ha, read-out: Foxtail, Giant damage rating (100=total damage to plant; 0=no damage to plant); for pest or weed control at 62.5 g/ha / pest or weed control at 250 g/ha: evaluated after 13 days; for pest or weed control at 250 g/ha: 250 g ai/ha, read-out: damage to plant, Foxtail, Giant (100=total damage to plant; 0=no damage to plant)
Summary of the method: (§1)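 Eight days post-sowing, plants received a spray of test compound (acetone/water 50:50, 0.5% Tween 20) at 15.625, 62.5 or 250 g/ha. Glasshouse regime thereafter: 24/16 °C, 14 h light, 65% humidity. Assessment after 13 days on a 0–100 damage scale.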

[2] = tested on: barnyardgrass (Echinochloa crus-galli); assay: Test G Post-Emergence Protocol; settings: Echinochloa crus-galli, post-emergence, 312 h; for pest or weed control at 15.625 g/ha: 15.625 g ai/ha, evaluated after 13 days (100=total damage to plant; 0=no damage to plant), read-out: Barnyardgrass damage rating; for pest or weed control at 62.5 g/ha: 62.5 g ai/ha, read-out: Barnyardgrass damage rating (100=total damage to plant; 0=no damage to plant); for pest or weed control at 62.5 g/ha / pest or weed control at 250 g/ha: evaluated after 13 days; for pest or weed control at 250 g/ha: 250 g ai/ha, read-out: damage to plant, Barnyardgrass (100=total damage to plant; 0=no damage to plant)
Summary of the method: as §1

[3] = tested on: redroot pigweed (Amaranthus retroflexus); assay: Test G Post-Emergence Protocol; settings: Amaranthus retroflexus, post-emergence, 312 h; for pest or weed control at 15.625 g/ha: 15.625 g ai/ha, evaluated after 13 days (100=total damage to plant; 0=no damage to plant), read-out: Pigweed, Redroot damage rating; for pest or weed control at 62.5 g/ha: 62.5 g ai/ha, read-out: Pigweed, Redroot damage rating (100=total damage to plant; 0=no damage to plant); for pest or weed control at 62.5 g/ha / pest or weed control at 250 g/ha: evaluated after 13 days; for pest or weed control at 250 g/ha: 250 g ai/ha, read-out: damage to plant, Pigweed, Redroot (100=total damage to plant; 0=no damage to plant)
Summary of the method: as §1

[4] = tested on: ivy-leaved morning glory (Ipomoea hederacea); assay: Test G Post-Emergence Protocol; settings: Ipomoea, post-emergence, 312 h; for pest or weed control at 15.625 g/ha: 15.625 g ai/ha, evaluated after 13 days (100=total damage to plant; 0=no damage to plant), read-out: Morningglory, Ivy-leaved damage rating; for pest or weed control at 62.5 g/ha: 62.5 g ai/ha, read-out: Morningglory, Ivy-leaved damage rating (100=total damage to plant; 0=no damage to plant); for pest or weed control at 62.5 g/ha / pest or weed control at 250 g/ha: evaluated after 13 days; for pest or weed control at 250 g/ha: 250 g ai/ha, read-out: damage to plant, Morningglory, Ivy-leaved (100=total damage to plant; 0=no damage to plant)
Summary of the method: as §1

[5] = tested on: corn (Zea mays); assay: Test G Post-Emergence Protocol; settings: Zea mays, post-emergence, 312 h; for plant injury at 15.625 g/ha: 15.625 g ai/ha, evaluated after 13 days (100=total damage to plant; 0=no damage to plant), read-out: Corn damage rating; for plant injury at 62.5 g/ha: 62.5 g ai/ha, read-out: Corn damage rating (100=total damage to plant; 0=no damage to plant); for plant injury at 62.5 g/ha / plant injury at 250 g/ha: evaluated after 13 days; for plant injury at 250 g/ha: 250 g ai/ha, read-out: damage to plant, Corn (100=total damage to plant; 0=no damage to plant)
Summary of the method: as §1

[6] = tested on: velvetleaf (Abutilon theophrasti); assay: Test G Post-Emergence Protocol; settings: Abutilon theophrasti, post-emergence, 312 h; for pest or weed control at 15.625 g/ha: 15.625 g ai/ha, evaluated after 13 days (100=total damage to plant; 0=no damage to plant), read-out: Velvetleaf damage rating; for pest or weed control at 62.5 g/ha: 62.5 g ai/ha, read-out: Velvetleaf damage rating (100=total damage to plant; 0=no damage to plant); for pest or weed control at 62.5 g/ha / pest or weed control at 250 g/ha: evaluated after 13 days; for pest or weed control at 250 g/ha: 250 g ai/ha, read-out: damage to plant, Velvetleaf (100=total damage to plant; 0=no damage to plant)
Summary of the method: as §1

[7] = tested on: giant foxtail (Setaria faberi); assay: Test G Pre-Emergence Protocol; settings: Setaria faberi, pre-emergence, 312 h, evaluated after 13 days; for pest or weed control at 15.625 g/ha: 15.625 g ai/ha; for pest or weed control at 15.625 g/ha / pest or weed control at 250 g/ha: read-out: Foxtail, Giant damage rating (100=total damage to plant; 0=no damage to plant); for pest or weed control at 62.5 g/ha: 62.5 g ai/ha, 100=total damage to plant, 0=no damage to plant, read-out: plant damage rating, Foxtail, Giant; for pest or weed control at 250 g/ha: 250 g ai/ha
Summary of the method: (§2)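 Seeds were sown in standard soil and kept one day in a glasshouse (24/16° C day/night, 14 h light, 65% humidity), then sprayed with compound in acetone/water (50:50) containing 0.5% Tween 20 at 15.625, 62.5 or 250 g/ha. Damage was scored after 13 days (0 = none, 100 = total).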

[8] = tested on: barnyardgrass (Echinochloa crus-galli); assay: Test G Pre-Emergence Protocol; settings: Echinochloa crus-galli, pre-emergence, 312 h, evaluated after 13 days; for pest or weed control at 15.625 g/ha: 15.625 g ai/ha, read-out: Barnyard grass damage rating (100=total damage to plant; 0=no damage to plant); for pest or weed control at 62.5 g/ha: 62.5 g ai/ha, 100=total damage to plant, 0=no damage to plant, read-out: plant damage rating, Barnyardgrass; for pest or weed control at 250 g/ha: 250 g ai/ha, read-out: Barnyardgrass damage rating (100=total damage to plant; 0=no damage to plant)
Summary of the method: as §2

[9] = tested on: redroot pigweed (Amaranthus retroflexus); assay: Test G Pre-Emergence Protocol; settings: Amaranthus retroflexus, pre-emergence, 312 h, evaluated after 13 days; for pest or weed control at 15.625 g/ha: 15.625 g ai/ha; for pest or weed control at 15.625 g/ha / pest or weed control at 250 g/ha: read-out: Pigweed, Redroot damage rating (100=total damage to plant; 0=no damage to plant); for pest or weed control at 62.5 g/ha: 62.5 g ai/ha, 100=total damage to plant, 0=no damage to plant, read-out: plant damage rating, Pigweed, Redroot; for pest or weed control at 250 g/ha: 250 g ai/ha
Summary of the method: as §2

[10] = tested on: ivy-leaved morning glory (Ipomoea hederacea); assay: Test G Pre-Emergence Protocol; settings: Ipomoea, pre-emergence, 312 h, evaluated after 13 days; for pest or weed control at 15.625 g/ha: 15.625 g ai/ha, read-out: Morning-glory, Ivy-leaved damage rating (100=total damage to plant; 0=no damage to plant); for pest or weed control at 62.5 g/ha: 62.5 g ai/ha, 100=total damage to plant, 0=no damage to plant, read-out: plant damage rating, Morningglory, Ivy-leaved; for pest or weed control at 250 g/ha: 250 g ai/ha, read-out: Morningglory, Ivy-leaved damage rating (100=total damage to plant; 0=no damage to plant)
Summary of the method: as §2

[11] = tested on: corn (Zea mays); assay: Test G Pre-Emergence Protocol; settings: Zea mays, pre-emergence, 312 h, evaluated after 13 days; for plant injury at 15.625 g/ha: 15.625 g ai/ha; for plant injury at 15.625 g/ha / plant injury at 250 g/ha: read-out: Corn damage rating (100=total damage to plant; 0=no damage to plant); for plant injury at 62.5 g/ha: 62.5 g ai/ha, 100=total damage to plant, 0=no damage to plant, read-out: plant damage rating, Corn; for plant injury at 250 g/ha: 250 g ai/ha
Summary of the method: as §2

[12] = tested on: velvetleaf (Abutilon theophrasti); assay: Test G Pre-Emergence Protocol; settings: Abutilon theophrasti, pre-emergence, 312 h, evaluated after 13 days; for pest or weed control at 15.625 g/ha: 15.625 g ai/ha; for pest or weed control at 15.625 g/ha / pest or weed control at 250 g/ha: read-out: Velvetleaf damage rating (100=total damage to plant; 0=no damage to plant); for pest or weed control at 62.5 g/ha: 62.5 g ai/ha, 100=total damage to plant, 0=no damage to plant, read-out: plant damage rating, Velvetleaf; for pest or weed control at 250 g/ha: 250 g ai/ha
Summary of the method: as §2

SMILES | pest or weed control at 15.625 g/ha [1] [%] | pest or weed control at 62.5 g/ha [1] [%] | pest or weed control at 250 g/ha [1] [%] | pest or weed control at 15.625 g/ha [2] [%] | pest or weed control at 62.5 g/ha [2] [%] | pest or weed control at 250 g/ha [2] [%] | pest or weed control at 15.625 g/ha [3] [%] | pest or weed control at 62.5 g/ha [3] [%] | pest or weed control at 250 g/ha [3] [%] | pest or weed control at 15.625 g/ha [4] [%] | pest or weed control at 62.5 g/ha [4] [%] | pest or weed control at 250 g/ha [4] [%] | plant injury at 15.625 g/ha [5] [%] | plant injury at 62.5 g/ha [5] [%] | plant injury at 250 g/ha [5] [%] | pest or weed control at 15.625 g/ha [6] [%] | pest or weed control at 62.5 g/ha [6] [%] | pest or weed control at 250 g/ha [6] [%] | pest or weed control at 15.625 g/ha [7] [%] | pest or weed control at 62.5 g/ha [7] [%] | further results
CN1C[C@@H](c2ccc(C(F)(F)F)cc2)[C@H](C(=O)Nc2cc(F)c(F)c(F)c2F)C1=O (racemic) [Compound 1625] | 0 | 50 | 80 | 0 | 30 | 40 | 0 | 30 | 50 | 0 | 0 | 20 | 0 | 0 | 10 | 0 | 10 | 40 | 0 | 10 | pest or weed control at 250 g/ha [7]: 80%; pest or weed control at 15.625 g/ha [8]: 0%; pest or weed control at 62.5 g/ha [8]: 0%; pest or weed control at 250 g/ha [8]: 40%; pest or weed control at 15.625 g/ha [9]: 0%; pest or weed control at 62.5 g/ha [9]: 20%; pest or weed control at 250 g/ha [9]: 10%; pest or weed control at 15.625 g/ha [10]: 0%; pest or weed control at 62.5 g/ha [10]: 10%; pest or weed control at 250 g/ha [10]: 10%; plant injury at 15.625 g/ha [11]: 0%; plant injury at 62.5 g/ha [11]: 0%; plant injury at 250 g/ha [11]: 0%; pest or weed control at 15.625 g/ha [12]: 0%; pest or weed control at 62.5 g/ha [12]: 0%; pest or weed control at 250 g/ha [12]: 10%
CN1C[C@@H](c2ccc(C(F)(F)F)cc2)[C@H](C(=O)Nc2ccc(F)c(F)c2Cl)C1=O (racemic) [Compound 1627] | 70 | 80 | 80 | 20 | 70 | 80 | 20 | 60 | 70 | 60 | 70 | 70 | 0 | 30 | 70 | 0 | 20 | 40 | 70 | 80 | pest or weed control at 250 g/ha [7]: 80%; pest or weed control at 15.625 g/ha [8]: 0%; pest or weed control at 62.5 g/ha [8]: 40%; pest or weed control at 250 g/ha [8]: 80%; pest or weed control at 15.625 g/ha [9]: 0%; pest or weed control at 62.5 g/ha [9]: 50%; pest or weed control at 250 g/ha [9]: 60%; pest or weed control at 15.625 g/ha [10]: 0%; pest or weed control at 62.5 g/ha [10]: 0%; pest or weed control at 250 g/ha [10]: 10%; plant injury at 15.625 g/ha [11]: 0%; plant injury at 62.5 g/ha [11]: 10%; plant injury at 250 g/ha [11]: 70%; pest or weed control at 15.625 g/ha [12]: 0%; pest or weed control at 62.5 g/ha [12]: 20%; pest or weed control at 250 g/ha [12]: 20%
Cc1c(F)ccc(NC(=O)[C@@H]2C(=O)N(C)C[C@H]2c2ccc(C(F)(F)F)cc2)c1F (racemic) [Compound 1629] | 0 | 80 | 80 | 0 | 30 | 70 | 10 | 10 | 30 | 20 | 20 | 30 | 0 | 10 | 10 | 20 | 10 | 0 | 30 | 50 | pest or weed control at 250 g/ha [7]: 80%; pest or weed control at 15.625 g/ha [8]: 10%; pest or weed control at 62.5 g/ha [8]: 0%; pest or weed control at 250 g/ha [8]: 70%; pest or weed control at 15.625 g/ha [9]: 0%; pest or weed control at 62.5 g/ha [9]: 0%; pest or weed control at 250 g/ha [9]: 0%; pest or weed control at 15.625 g/ha [10]: 10%; pest or weed control at 62.5 g/ha [10]: 40%; pest or weed control at 250 g/ha [10]: 50%; plant injury at 15.625 g/ha [11]: 0%; plant injury at 62.5 g/ha [11]: 10%; plant injury at 250 g/ha [11]: 0%; pest or weed control at 15.625 g/ha [12]: 0%; pest or weed control at 62.5 g/ha [12]: 0%; pest or weed control at 250 g/ha [12]: 0%

From patent publication US12077503B2, “Substituted cyclic amides and their use as herbicides” (FMC CORPORATION, priority 2015, dated 2024)
